Measured values from ChEMBL document CHEMBL1201862, “PubChem BioAssay data set” (2004).
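Where inhibition never reached the appropriate level, the endpoint shown equals the highest concentration tested. Otherwise, values were interpolated linearly from a five-concentration, 48-hour dose response in 96-well plates. GI50: concentration for 50% inhibition of growth.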 Activity calls are given as the source filed them. Cut-off read from the data, not from the text of the source: active = GI50 up to about 1.1 µM and inactive = higher.

Assays:
Experiment in all cases: inhibition of tumour cell growth, NCI panel, 48 h
SK-MEL-5 = system: SK-MEL-5
OVCAR-5 = system: OVCAR-5
Hs-578T = system: Hs-578T
CAKI-1 = system: CAKI-1
MOLT-4 = system: MOLT-4
A549 = system: A549
DU-145 = system: DU-145
SW-620 = system: SW-620
SF-295 = system: SF-295
LOX IMVI = system: LOX IMVI
SR = system: SR
NCI-H460 = system: NCI-H460
HT-29 = system: HT-29
SF-268 = system: SF-268
SF-539 = system: SF-539
NCI-H23 = system: NCI-H23
UACC-62 = system: UACC-62
SNB-19 = system: SNB-19
NCI-H522 = system: NCI-H522
TK-10 = system: TK-10

Measured: GI50

CCOC(=O)c1cc(C2(O)CCN(CC(C)CC)C2=O)c(-c2cc(C)no2)[nH]1 (stereo not drawn)
inactive: SK-MEL-5 > 100 µM | OVCAR-5 > 100 µM | Hs-578T > 100 µM | CAKI-1 > 100 µM | MOLT-4 > 100 µM | A549 > 100 µM | DU-145 > 100 µM | SW-620 > 100 µM | SF-295 > 100 µM | LOX IMVI > 100 µM | SR > 100 µM | NCI-H460 > 100 µM | HT-29 > 100 µM | SF-268 > 100 µM | SF-539 > 100 µM | NCI-H23 > 100 µM | UACC-62 > 100 µM | SNB-19 > 100 µM

CN(C)CC(O)c1ccc(Cl)c2ccccc12 (stereo not drawn)
inactive: SK-MEL-5 16.6 µM | OVCAR-5 > 100 µM | Hs-578T 38.2 µM | CAKI-1 25.6 µM | NCI-H522 33.2 µM | TK-10 34.3 µM | MOLT-4 23.2 µM | A549 > 77.6 µM | DU-145 > 96.8 µM | SW-620 > 83.9 µM | SF-295 24.3 µM | LOX IMVI 22.3 µM | NCI-H460 31.2 µM | HT-29 50 µM | SF-268 55.6 µM | SF-539 50.1 µM | NCI-H23 > 87.1 µM | UACC-62 17.5 µM | SNB-19 > 70 µM

C=C(C(=O)O)C1CCC(CC/C=C(\C)CC/C=C(\C)CCC=C(C)C)CO1 (stereo not drawn)
inactive: SK-MEL-5 12.5 µM | OVCAR-5 18 µM | Hs-578T 12 µM | CAKI-1 32.3 µM | NCI-H522 20.7 µM | TK-10 23 µM | A549 7.89 µM | DU-145 17.5 µM | SW-620 15.7 µM | SF-295 18.2 µM | LOX IMVI 12.2 µM | HT-29 11.7 µM | SF-268 28.2 µM | SF-539 12.1 µM | NCI-H23 18.5 µM | UACC-62 40 µM | SNB-19 13.6 µM

Cc1cn(CCCCCCOC(=O)NC(CCCNC(N)=O)C(=O)O)c(=O)[nH]c1=O (stereo not drawn)
inactive: OVCAR-5 > 100 µM | Hs-578T > 100 µM | CAKI-1 > 100 µM | TK-10 > 100 µM | MOLT-4 > 100 µM | A549 > 100 µM | DU-145 > 100 µM | SW-620 > 100 µM | SF-295 > 100 µM | LOX IMVI > 100 µM | SR > 100 µM | NCI-H460 > 100 µM | HT-29 > 100 µM | SF-268 > 100 µM | SF-539 > 100 µM | NCI-H23 > 100 µM | UACC-62 > 100 µM | SNB-19 > 100 µM

CN(C)/N=N/c1ccc2[nH]c(=O)[nH]c2c1
inactive: SK-MEL-5 > 100 µM | OVCAR-5 > 100 µM | Hs-578T > 100 µM | CAKI-1 > 100 µM | NCI-H522 > 100 µM | TK-10 > 100 µM | A549 > 100 µM | DU-145 > 100 µM | SW-620 > 100 µM | SF-295 > 100 µM | LOX IMVI > 100 µM | NCI-H460 > 100 µM | HT-29 > 100 µM | SF-268 > 100 µM | SF-539 > 100 µM | NCI-H23 > 100 µM | UACC-62 > 100 µM | SNB-19 > 100 µM

O=C(NCCCN1CCN(CCCNC(=O)Nc2cccc3ccccc23)CC1)Nc1cccc2ccccc12
inactive: SK-MEL-5 16.6 µM | OVCAR-5 15.1 µM | Hs-578T 17.5 µM | CAKI-1 16.2 µM | NCI-H522 15.8 µM | TK-10 14 µM | A549 17.7 µM | DU-145 16.9 µM | SW-620 8.32 µM | SF-295 13.9 µM | LOX IMVI 8.49 µM | HT-29 16.8 µM | SF-268 17.3 µM | SF-539 18 µM | NCI-H23 16.2 µM | UACC-62 3.33 µM | SNB-19 18.6 µM

C[C@]12CC[C@H](O)CC1=CC[C@@H]1[C@@H]2CC[C@]2(C)C(=N/N)/C(=N\O)C[C@@H]12
inactive: SK-MEL-5 > 100 µM | OVCAR-5 > 100 µM | CAKI-1 > 100 µM | NCI-H522 31.7 µM | TK-10 > 100 µM | MOLT-4 16.4 µM | A549 > 100 µM | DU-145 > 100 µM | SW-620 60 µM | SF-295 35.1 µM | LOX IMVI 57 µM | SR 7.78 µM | HT-29 36 µM | SF-268 59.7 µM | SF-539 > 100 µM | NCI-H23 > 100 µM | UACC-62 58.5 µM | SNB-19 35.2 µM

CC1(C)C2CC3C(C)(C2)C31c1cc(Cl)ccc1N (stereo not drawn)
inactive: SK-MEL-5 14.2 µM | OVCAR-5 16 µM | CAKI-1 15.6 µM | NCI-H522 6.71 µM | TK-10 15.5 µM | MOLT-4 8.36 µM | A549 11.9 µM | DU-145 14 µM | SW-620 15 µM | SF-295 15.2 µM | LOX IMVI 13.6 µM | SR 6.79 µM | NCI-H460 15.1 µM | HT-29 14.5 µM | SF-268 13.8 µM | SF-539 15.5 µM | NCI-H23 12.3 µM | UACC-62 15.2 µM | SNB-19 18.9 µM

CC/C(=C\c1ccc(OC)cc1)c1ccc(OC)cc1
inactive: SK-MEL-5 30.1 µM | OVCAR-5 66.7 µM | Hs-578T > 100 µM | CAKI-1 > 100 µM | NCI-H522 > 100 µM | TK-10 > 100 µM | MOLT-4 52.5 µM | A549 > 100 µM | DU-145 > 100 µM | SW-620 > 100 µM | SF-295 53.3 µM | LOX IMVI 70.6 µM | NCI-H460 > 100 µM | HT-29 37.5 µM | SF-268 > 100 µM | SF-539 > 100 µM | NCI-H23 86.3 µM | UACC-62 > 100 µM | SNB-19 > 100 µM

CCN(C(=O)N[C@@H](Cc1ccccc1)C(=O)N[C@@H](CC(C)C)C(=O)OC)c1ccccc1
inactive: OVCAR-5 23.2 µM | CAKI-1 32.6 µM | NCI-H522 9.55 µM | TK-10 33 µM | MOLT-4 15.8 µM | A549 30.5 µM | DU-145 17.3 µM | SW-620 25.4 µM | SF-295 26.5 µM | LOX IMVI 13.8 µM | SR 6.18 µM | NCI-H460 12.4 µM | HT-29 14.3 µM | SF-539 19.5 µM | NCI-H23 24 µM | UACC-62 17.7 µM | SNB-19 77.6 µM

CCOc1ccc(NC(=O)C(=O)Nn2c(N)nnc2N)cc1
inactive: SK-MEL-5 > 100 µM | OVCAR-5 > 100 µM | Hs-578T > 100 µM | CAKI-1 > 100 µM | NCI-H522 > 100 µM | TK-10 > 100 µM | MOLT-4 > 100 µM | A549 > 100 µM | SW-620 > 100 µM | SF-295 > 100 µM | LOX IMVI > 100 µM | SR > 100 µM | NCI-H460 > 100 µM | HT-29 > 100 µM | SF-268 > 100 µM | SF-539 > 100 µM | NCI-H23 > 100 µM | UACC-62 > 100 µM
